Our source for the MIC, Activity and MNTC values is ChEMBL document CHEMBL3045118, “Synthesis and biological activities of new Mannich bases of chlorokojic acid derivatives” (Med Chem Res, 2011).

Structures are written as SMILES. ≈ marks a conversion by molar mass, not a printed value.

For data set [1], the system named is Staphylococcus aureus. As to the kind of experiment: Antibacterial activity against oxacillin, gentamicin, aztreonam, trimethoprim-sulfamethoxazole-resistant Staphylococcus aureus by microdilution method. The format is functional.
Data set [2] deals with Human alphaherpesvirus 1. As to the kind of experiment: Antiviral activity against Human herpesvirus 1 infected bovine MDBK cells assessed as concentration required to cause maximum inhibition of virus-induced cytopathic effect. In kind it is functional. On the technique in general: Damage to the host cells serves as the signal in cytopathic effect assays.
The subject of another data set is Candida parapsilosis. Nature of the data set: Antifungal activity against Candida parapsilosis ATCC 22019 by microdilution method. The format is functional. The following applies: Lodderomyces parapsilosis. For orientation: In broth dilution the organism is exposed to a series of concentrations in liquid medium.
Data set [3] relates to Pseudomonas aeruginosa. As to the kind of experiment: Antibacterial activity against trimethoprim-sulfamethoxazole, tazobactam-resistant Pseudomonas aeruginosa by microdilution method. The format is functional.
The test system of data set [4] is Acinetobacter baumannii. Nature of the data set: Antibacterial activity against trimethoprim-sulfamethoxazole, cefepime-resistant Acinetobacter baumannii by microdilution method. The format is functional.
Data set [5] can be described thus: Cytotoxicity against Chlorocebus aethiops (African green monkey) Vero cells assessed as maximum non-toxic concentration. The format is cell-based. The conditions noted are these: chlorocebus sabaeus, read-out: MNCC.
The subject of data set [6] is Acinetobacter baumannii. Nature of the data set: Antibacterial activity against Acinetobacter baumannii RSKK 02026 by microdilution method. The format is functional.
The subject of another data set is Candida albicans. Nature of the data set: Antifungal activity against Candida albicans ATCC 10231 by microdilution method. In kind it is functional.
Data set [7] concerns Klebsiella pneumoniae. Nature of the data set: Antibacterial activity against Klebsiella pneumoniae RSKK 574 by microdilution method. In kind it is functional.
Data set [8] relates to Escherichia coli. As to the kind of experiment: Antibacterial activity against Escherichia coli ATCC 35218 by microdilution method. In kind it is functional.
Data set [9] concerns Bacillus subtilis. As to the kind of experiment: Antibacterial activity against ceftriaxon-resistant Bacillus subtilis by microdilution method. In kind it is functional.
Data set [10] relates to Bacillus subtilis. As to the kind of experiment: Antibacterial activity against Bacillus subtilis ATCC 6633 by microdilution method. The format is functional.
For data set [11], the system named is Enterococcus faecalis. As to the kind of experiment: Antibacterial activity against cephalosporins and beta-lactam-resistant Enterococcus faecalis by microdilution method. The format is functional.
A short description of data set [12]: Cytotoxicity against Bos taurus (bovine) MDBK cells assessed as maximum non-toxic concentration. The format is cell-based. The conditions noted are these: cattle, read-out: MNCC.
Data set [13] deals with Human respirovirus 3. Nature of the data set: Antiviral activity against Human parainfluenza virus 3 infected African green monkey Vero cells assessed as concentration required to cause minimum inhibition of virus-induced cytopathic effect. The format is functional.
Data set [14] relates to Proteus mirabilis. As to the kind of experiment: Antibacterial activity against ESbetaL positive rimethoprim-sulfamethoxazole, cefepime, tazobactam-resistant Proteus mirabilis by microdilution method. In kind it is functional.
Data set [15] has as its system Klebsiella pneumoniae. Nature of the data set: Antibacterial activity against ESbetaL positive trimethoprim-sulfamethoxazole, amoxicillin clavulonat, cefriaxon, cephepim, aztreonam-resistant Klebsiella pneumoniae by microdilution method. In kind it is functional.
The subject of data set [16] is Staphylococcus aureus. As to the kind of experiment: Antibacterial activity against Staphylococcus aureus ATCC 25923 by microdilution method. The format is functional.
In data set [17] the test system is Proteus mirabilis. Nature of the data set: Antibacterial activity against Proteus mirabilis ATCC 7002 by microdilution method. The format is functional.
Data set [18] deals with Enterococcus faecalis. As to the kind of experiment: Antibacterial activity against Enterococcus faecalis ATCC 29212 by microdilution method. The format is functional.
In data set [19] the test system is Pseudomonas aeruginosa. Nature of the data set: Antibacterial activity against Pseudomonas aeruginosa ATCC 10145 by microdilution method. The format is functional.
Data set [20] deals with Escherichia coli. As to the kind of experiment: Antibacterial activity against ESbetaL positive trimethoprim-sulfamethoxazole, cefepime, tazobactam-resistant Escherichia coli isolate by microdilution method. In kind it is functional.
Data set [21] has as its system Human respirovirus 3. As to the kind of experiment: Antiviral activity against Human parainfluenza virus 3 infected African green monkey Vero cells assessed as concentration required to cause maximum inhibition of virus-induced cytopathic effect. In kind it is functional.
The subject of data set [22] is Human alphaherpesvirus 1. As to the kind of experiment: Antiviral activity against Human herpesvirus 1 infected bovine MDBK cells assessed as concentration required to cause minimum inhibition of virus-induced cytopathic effect. The format is functional.

Take `O=c1cc(CCl)oc(CN2CCN(c3ccc(Cl)cc3)CC2)c1O`: the MIC – broadly, the smallest concentration in the dilution series that meets the test's criterion for growth inhibition – with Staphylococcus aureus [1] was above 128 µg/mL; in the data set on Candida parapsilosis it was 16 µg/mL (≈ 43.3 µM); in the data set with Pseudomonas aeruginosa [3] it was above 128 µg/mL; against Acinetobacter baumannii [4] it was above 128 µg/mL; in the data set with Acinetobacter baumannii [6], 64 µg/mL (≈ 173 µM); in the data set on Candida albicans it was 16 µg/mL (≈ 43.3 µM). The MIC is 64 µg/mL (≈ 173 µM) with Klebsiella pneumoniae [7]; 64 µg/mL (≈ 173 µM) against Escherichia coli [8]; above 128 µg/mL in the data set on Bacillus subtilis [9]; 16 µg/mL (≈ 43.3 µM) in the data set on Bacillus subtilis [10]; above 128 µg/mL in the data set with Enterococcus faecalis [11]; above 128 µg/mL in the data set on Proteus mirabilis [14]. Further, the MIC against Klebsiella pneumoniae [15] is above 128 µg/mL; in the data set on Staphylococcus aureus [16], 8 µg/mL (≈ 21.7 µM); against Proteus mirabilis [17], 64 µg/mL (≈ 173 µM); in the data set with Enterococcus faecalis [18], 8 µg/mL (≈ 21.7 µM); against Pseudomonas aeruginosa [19], 64 µg/mL (≈ 173 µM); in the data set on Escherichia coli [20], above 128 µg/mL. Also, the Activity with Human alphaherpesvirus 1 [2] was found to be 0.4 µg/mL; in the data set with Human respirovirus 3 [13] it was 0.025 µg/mL; in the data set on Human respirovirus 3 [21], 0.4 µg/mL; in the data set on Human alphaherpesvirus 1 [22], 0.1 µg/mL. In addition, the results for the MNTC in [5] and in [12] were 0.4 µg/mL and 1.6 µg/mL, respectively.

For `O=c1cc(CCl)oc(CN2CCN(c3cccc(Cl)c3)CC2)c1O`, the minimal inhibitory concentration (MIC) in the data set with Staphylococcus aureus [1] turned out to be 128 µg/mL (≈ 347 µM); against Candida parapsilosis it was 16 µg/mL (≈ 43.3 µM); in the data set on Pseudomonas aeruginosa [3], 64 µg/mL; in the data set on Acinetobacter baumannii [4] it was 64 µg/mL (≈ 173 µM); against Acinetobacter baumannii [6], 32 µg/mL (≈ 86.7 µM); in the data set with Candida albicans, 16 µg/mL (≈ 43.3 µM). In addition, the MIC against Klebsiella pneumoniae [7] is 32 µg/mL (≈ 86.7 µM); against Escherichia coli [8], 32 µg/mL (≈ 86.7 µM); in the data set on Bacillus subtilis [9], 32 µg/mL (≈ 86.7 µM); with Bacillus subtilis [10], 16 µg/mL (≈ 43.3 µM); in the data set with Enterococcus faecalis [11] it was 128 µg/mL (≈ 347 µM); with Proteus mirabilis [14], 64 µg/mL. The minimal inhibitory concentration (MIC) against Klebsiella pneumoniae [15] was found to be 64 µg/mL (≈ 173 µM); against Staphylococcus aureus [16], 8 µg/mL (≈ 21.7 µM); against Proteus mirabilis [17] it was 32 µg/mL (≈ 86.7 µM); against Enterococcus faecalis [18], 8 µg/mL (≈ 21.7 µM); against Pseudomonas aeruginosa [19], 32 µg/mL (≈ 86.7 µM); in the data set on Escherichia coli [20], 64 µg/mL. In addition, the Activity is 0.8 µg/mL with Human alphaherpesvirus 1 [2], 0.025 µg/mL in the data set with Human respirovirus 3 [13], 0.8 µg/mL in the data set on Human respirovirus 3 [21] and 0.1 µg/mL in the data set on Human alphaherpesvirus 1 [22]. Further, the MNTC stood at 0.8 µg/mL in data set [5] and 1.6 µg/mL in data set [12].

On to `O=c1cc(CCl)oc(CN2CCN(c3ccc(Cl)c(Cl)c3)CC2)c1O`, for which the MIC in the data set on Staphylococcus aureus [1] stood at 64 µg/mL (≈ 159 µM); in the data set on Candida parapsilosis, 16 µg/mL (≈ 39.6 µM); with Pseudomonas aeruginosa [3] it was 64 µg/mL; with Acinetobacter baumannii [4], 32 µg/mL (≈ 79.3 µM); in the data set on Acinetobacter baumannii [6], 64 µg/mL (≈ 159 µM); in the data set with Candida albicans, 16 µg/mL (≈ 39.6 µM). For the same molecule, the MIC was 32 µg/mL (≈ 79.3 µM) in the data set with Klebsiella pneumoniae [7]; 64 µg/mL (≈ 159 µM) in the data set with Escherichia coli [8]; 64 µg/mL (≈ 159 µM) in the data set on Bacillus subtilis [9]; 16 µg/mL (≈ 39.6 µM) in the data set on Bacillus subtilis [10]; 64 µg/mL (≈ 159 µM) with Enterococcus faecalis [11]; 64 µg/mL with Proteus mirabilis [14]. The MIC with Klebsiella pneumoniae [15] is 64 µg/mL (≈ 159 µM); in the data set on Staphylococcus aureus [16], 8 µg/mL (≈ 19.8 µM); in the data set with Proteus mirabilis [17], 32 µg/mL (≈ 79.3 µM); against Enterococcus faecalis [18], 8 µg/mL (≈ 19.8 µM); against Pseudomonas aeruginosa [19] it was 16 µg/mL (≈ 39.6 µM); with Escherichia coli [20], 64 µg/mL. For the same molecule, the Activity with Human alphaherpesvirus 1 [2] is 0.4 µg/mL; with Human respirovirus 3 [13], 0.05 µg/mL; in the data set on Human respirovirus 3 [21], 0.4 µg/mL; in the data set on Human alphaherpesvirus 1 [22], 0.1 µg/mL. Also, the MNTC worked out at 0.4 µg/mL in [5] and 1.6 µg/mL in [12].

For the molecule `CCOC(=O)C1=C[C@@H](OC(CC)CC)[C@H](NC(C)=O)[C@@H](N)C1` [OSELTAMIVIR], the Activity in the data set with Human respirovirus 3 [13] is below 0.012 µg/mL; with Human respirovirus 3 [21], 1.6 µg/mL.

Take `Nc1nc2c(ncn2COCCO)c(=O)[nH]1` [ACYCLOVIR]: the Activity with Human alphaherpesvirus 1 [2] is 1.6 µg/mL; in the data set with Human alphaherpesvirus 1 [22], below 0.012 µg/mL.
